Measurements published in US20250312352A1, “GLP-1R MODULATING COMPOUNDS” (Gilead Sciences, Inc., priority 2021, published 2025).

Biological target: T1, GLP-1R (Homo sapiens, UniProt P43220)
T1 construct: host or cells: CHO cells
Assay: GLP-1R activation cAMP assay (Assay 1 or Assay 2)
Assay type: cell-based
Conditions: cAMP increase in CHO cells stably expressing GLP-1R; compounds run on one of the two cAMP assays
Method in brief: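 CHO cells stably expressing human GLP-1R were incubated 1 h in HBSS/20 mM HEPES/0.1% BSA, then exposed to 10-point agonist dilutions for 30 min at 37 °C. cAMP increase was measured with an HTRF Gs dynamic kit; EC50 from sigmoidal fit of response versus log concentration.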

T1 sequence (P43220 24-463): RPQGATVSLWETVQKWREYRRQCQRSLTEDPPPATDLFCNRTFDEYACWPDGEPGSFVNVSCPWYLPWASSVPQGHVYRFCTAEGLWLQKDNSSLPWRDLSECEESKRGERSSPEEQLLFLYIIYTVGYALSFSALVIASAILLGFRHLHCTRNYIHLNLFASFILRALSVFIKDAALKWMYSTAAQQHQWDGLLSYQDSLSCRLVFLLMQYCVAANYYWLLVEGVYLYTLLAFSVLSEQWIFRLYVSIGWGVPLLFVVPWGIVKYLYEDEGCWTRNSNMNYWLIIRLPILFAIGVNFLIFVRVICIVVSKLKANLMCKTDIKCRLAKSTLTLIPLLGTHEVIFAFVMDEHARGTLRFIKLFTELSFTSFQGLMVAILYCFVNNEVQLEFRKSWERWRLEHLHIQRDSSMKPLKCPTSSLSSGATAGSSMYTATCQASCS

| SMILES | EC50 |
| --- | --- |
| CNC(=O)c1cc(Cl)c(COc2cccc(-c3cc(F)c(Cc4nc5c(F)cc(C(=O)O)cc5n4C[C@@H]4CCO4)cc3C)n2)cn1 [Example 394, (S)-2-(4-(6-((4-chloro-6-(methylcarbamoyl)pyridin-3-yl)methoxy)pyridin-2-yl)-2-fluoro-5-methylbenzyl)-4-fluoro-1-(oxetan-2-ylmethyl)-1H-benzo[d]imidazole-6-carboxylic acid] | 0.62 nM |
| Cc1nc(C)c(COc2cccc(-c3cc(F)c(Cc4nc5ccc(C(=O)O)cc5n4C[C@@H]4CCO4)cc3F)n2)s1 [Example 354, (S)-2-(4-(6-((2,4-dimethylthiazol-5-yl)methoxy)pyridin-2-yl)-2,5-difluorobenzyl)-1-(oxetan-2-ylmethyl)-1H-benzo[d]imidazole-6-carboxylic acid] | 0.622 nM |
| O=C(O)c1ccc2nc(Cc3cc(F)c(-c4cccc(OCc5cc(F)c(Br)s5)n4)cc3F)n(C[C@@H]3CCO3)c2c1 [Example 51, (S)-2-(4-(6-((5-bromo-4-fluorothiophen-2-yl)methoxy)pyridin-2-yl)-2,5-difluorobenzyl)-1-(oxetan-2-ylmethyl)-1H-benzo[d]imidazole-6-carboxylic acid] | 0.21 nM |
| CNC(=O)c1cc(Cl)c(COc2cccc(-c3cc(F)c(Cc4nc5ccc(C(=O)O)cc5n4CC4(CF)CC4)c(F)c3F)c2)cn1 [Example 451, 2-((3′-((4-chloro-6-(methylcarbamoyl)pyridin-3-yl)methoxy)-2,3,5-trifluoro-[1,1′-biphenyl]-4-yl)methyl)-1-((1-(fluoromethyl)cyclopropyl)methyl)-1H-benzo[d]imidazole-6-carboxylic acid] | 0.611 nM |
| CC(F)(F)c1cnc(COc2cccc(-c3cc(F)c(Cc4nc5ccc(C(=O)O)cc5n4[C@@H]4COCC4(C)C)cc3F)n2)s1 [Example 425, (S)-2-(4-(6-((5-(1,1-difluoroethyl)thiazol-2-yl)methoxy)pyridin-2-yl)-2,5-difluorobenzyl)-1-(4,4-dimethyltetrahydrofuran-3-yl)-1H-benzo[d]imidazole-6-carboxylic acid] | 0.535 nM |
| Cn1cc(-c2cnc(COc3cccc(-c4cc(F)c(Cc5nc6ccc(C(=O)O)cc6n5C[C@@H]5CCO5)cc4F)n3)s2)cn1 [Example 79, 2-[[2,5-difluoro-4-[6-[[5-(1-methylpyrazol-4-yl)thiazol-2-yl]methoxy]-2-pyridyl]phenyl]methyl]-3-[[(2S)-oxetan-2-yl]methyl]benzimidazole-5-carboxylic acid] | 0.06 nM |
| CC1(C)COC[C@H]1n1c(Cc2cc(F)c(-c3ccc(F)c(OCc4ncc(C(F)(F)F)s4)n3)cc2F)nc2ccc(C(=O)O)cc21 [Example 415, (S)-2-(2,5-difluoro-4-(5-fluoro-6-((5-(trifluoromethyl)thiazol-2-yl)methoxy)pyridin-2-yl)benzyl)-1-(4,4-dimethyltetrahydrofuran-3-yl)-1H-benzo[d]imidazole-6-carboxylic acid] | 0.189 nM |
| O=C(O)c1cc(F)c2nc(Cc3cc(F)c(-c4cccc(OCc5ccc(Cl)s5)n4)cc3F)n(C[C@@H]3CCO3)c2c1 [Example 314, (S)-2-(4-(6-((5-chlorothiophen-2-yl)methoxy)pyridin-2-yl)-2,5-difluorobenzyl)-4-fluoro-1-(oxetan-2-ylmethyl)-1H-benzo[d]imidazole-6-carboxylic acid] | 0.094 nM |
| COc1nnc(COc2nc(-c3cc(F)c(Cc4nc5ccc(C(=O)O)cc5n4[C@@H]4COCC4(C)C)cc3F)ccc2F)s1 [Example 339, (S)-2-(2,5-difluoro-4-(5-fluoro-6-((5-methoxy-1,3,4-thiadiazol-2-yl)methoxy)pyridin-2-yl)benzyl)-1-(4,4-dimethyltetrahydrofuran-3-yl)-1H-benzo[d]imidazole-6-carboxylic acid] | 0.043 nM |
| N#Cc1ncc(COc2cccc(-c3cc(F)c(Cc4nc5ccc(C(=O)O)cc5n4C[C@@H]4CCO4)cc3F)n2)s1 [Example 166, (S)-2-(4-(6-((2-cyanothiazol-5-yl)methoxy)pyridin-2-yl)-2,5-difluorobenzyl)-1-(oxetan-2-ylmethyl)-1H-benzo[d]imidazole-6-carboxylic acid] | 0.62 nM |
| Cn1cc(C#Cc2cnc(COc3cccc(-c4cc(F)c(Cc5nc6ccc(C(=O)O)cc6n5C[C@@H]5CCO5)cc4F)n3)c(F)c2)cn1 [Example 143, (S)-2-(2,5-difluoro-4-(6-((3-fluoro-5-((1-methyl-1H-pyrazol-4-yl)ethynyl)pyridin-2-yl)methoxy)pyridin-2-yl)benzyl)-1-(oxetan-2-ylmethyl)-1H-benzo[d]imidazole-6-carboxylic acid] | 0.14 nM |
| N#Cc1ccc(C#Cc2cnc(COc3cccc(-c4cc(F)c(Cc5nc6ccc(C(=O)O)cc6n5C[C@@H]5CCO5)cc4F)n3)s2)cc1 [Example 325, (S)-2-(4-(6-((5-((4-cyanophenyl)ethynyl)thiazol-2-yl)methoxy)pyridin-2-yl)-2,5-difluorobenzyl)-1-(oxetan-2-ylmethyl)-1H-benzo[d]imidazole-6-carboxylic acid] | 0.582 nM |
| CNC(=O)c1cc(Cl)c(COc2cccc(-c3cc(F)c(Cc4nc5ccc(C(=O)O)cc5n4CC4(CF)CC4)c(F)c3F)n2)cn1 [Example 450, 2-(4-(6-((4-chloro-6-(methylcarbamoyl)pyridin-3-yl)methoxy)pyridin-2-yl)-2,3,6-trifluorobenzyl)-1-((1-(fluoromethyl)cyclopropyl)methyl)-1H-benzo[d]imidazole-6-carboxylic acid] | 0.05 nM |
| COCCn1c(Cc2cc(F)c(-c3cccc(OCc4ccc(-n5cnc(C6CC6)n5)nc4)n3)cc2F)nc2ccc(C(=O)O)cc21 [Example 250, 2-(4-(6-((6-(3-cyclopropyl-1H-1,2,4-triazol-1-yl)pyridin-3-yl)methoxy)pyridin-2-yl)-2,5-difluorobenzyl)-1-(2-methoxyethyl)-1H-benzo[d]imidazole-6-carboxylic acid] | 22.6 nM |
| Cn1cc(C#Cc2cnc(COc3cccc(-c4cc(F)c(Cc5nc6ccc(C(=O)O)cc6n5C[C@@H]5CCO5)cc4F)n3)cn2)cn1 [Example 155, (S)-2-(2,5-difluoro-4-(6-((5-((1-methyl-1H-pyrazol-4-yl)ethynyl)pyrazin-2-yl)methoxy)pyridin-2-yl)benzyl)-1-(oxetan-2-ylmethyl)-1H-benzo[d]imidazole-6-carboxylic acid] | 0.83 nM |
| COCCn1c(Cc2cc(F)c(-c3cccc(OCc4ccc(-c5cnn(CCN6CCOCC6)c5)cc4F)n3)cc2F)nc2ccc(C(=O)O)cc21 [Example 227, 2-(2,5-difluoro-4-(6-((2-fluoro-4-(1-(2-morpholinoethyl)-1H-pyrazol-4-yl)benzyl)oxy)pyridin-2-yl)benzyl)-1-(2-methoxyethyl)-1H-benzo[d]imidazole-6-carboxylic acid] | 3.45 nM |
| Cn1cc(C#Cc2cnc(COc3cccc(-c4cc(F)c(Cc5nc6c(F)cc(C(=O)O)cc6n5C[C@@H]5CCO5)cc4F)n3)c(F)c2)cn1 [Example 392, (S)-2-(2,5-difluoro-4-(6-((3-fluoro-5-((1-methyl-1H-pyrazol-4-yl)ethynyl)pyridin-2-yl)methoxy)pyridin-2-yl)benzyl)-4-fluoro-1-(oxetan-2-ylmethyl)-1H-benzo[d]imidazole-6-carboxylic acid] | 0.206 nM |
| CO[C@H](C)Cn1c(Cc2cc(F)c(-c3cccc(OCc4ncc(-c5cnn(C)c5)s4)n3)cc2F)nc2ccc(C(=O)O)cc21 [Example 224, 2-[[2,5-difluoro-4-[6-[[5-(1-methylpyrazol-4-yl)thiazol-2-yl]methoxy]-2-pyridyl]phenyl]methyl]-3-[(2R)-2-methoxypropyl]benzimidazole-5-carboxylic acid] | 1.11 nM |
| N#Cc1sc(COc2cccc(-c3cc(F)c(Cc4nc5ccc(C(=O)O)cc5n4C[C@@H]4CCO4)cc3F)n2)cc1F [Example 205, 2-[[4-[6-[(5-cyano-4-fluoro-2-thienyl)methoxy]-2-pyridyl]-2,5-difluoro-phenyl]methyl]-3-[[(2S)-oxetan-2-yl]methyl]benzimidazole-5-carboxylic acid] | 0.25 nM |
| Cn1nccc1COc1cccc(-c2cc(F)c(Cc3nc4ccc(C(=O)O)cc4n3C[C@@H]3CCO3)cc2F)n1 [Example 36, (S)-2-(2,5-difluoro-4-(6-((1-methyl-1H-pyrazol-5-yl)methoxy)pyridin-2-yl)benzyl)-1-(oxetan-2-ylmethyl)-1H-benzo[d]imidazole-6-carboxylic acid] | 5.28 nM |
| O=C(O)c1ccc2nc(Cc3cc(F)c(-c4cccc(OCc5ncc(C#CC6(C(F)(F)F)CC6)s5)n4)cc3F)n(C[C@@H]3CCO3)c2c1 [Example 335, (S)-2-(2,5-difluoro-4-(6-((5-((1-(trifluoromethyl)cyclopropyl)ethynyl)thiazol-2-yl)methoxy)pyridin-2-yl)benzyl)-1-(oxetan-2-ylmethyl)-1H-benzo[d]imidazole-6-carboxylic acid] | 0.202 nM |
| O=C(O)c1ccc2nc(Cc3cc(F)c(-c4cccc(OCc5ncc(-c6cnn(C(F)F)c6)s5)n4)cc3F)n(C[C@@H]3CCO3)c2c1 [Example 84, (S)-2-(4-(6-((5-(1-(difluoromethyl)-1H-pyrazol-4-yl)thiazol-2-yl)methoxy)pyridin-2-yl)-2,5-difluorobenzyl)-1-(oxetan-2-ylmethyl)-1H-benzo[d]imidazole-6-carboxylic acid] | 0.07 nM |
| Cn1cc(Cl)c(COc2cccc(-c3cc(F)c(Cc4nc5ccc(C(=O)O)cc5n4C[C@@H]4CCO4)cc3F)n2)n1 [Example 78, (S)-2-(4-(6-((4-chloro-1-methyl-1H-pyrazol-3-yl)methoxy)pyridin-2-yl)-2,5-difluorobenzyl)-1-(oxetan-2-ylmethyl)-1H-benzo[d]imidazole-6-carboxylic acid] | 9.4 nM |
| NC(=O)c1cnc(COc2cccc(-c3cc(F)c(Cc4nc5ccc(C(=O)O)cc5n4C[C@@H]4CCO4)cc3F)n2)cn1 [Example 209, (S)-2-(4-(6-((5-carbamoylpyrazin-2-yl)methoxy)pyridin-2-yl)-2,5-difluorobenzyl)-1-(oxetan-2-ylmethyl)-1H-benzo[d]imidazole-6-carboxylic acid] | 0.14 nM |
